Assays:
[1] = target: Retinoic acid receptor beta (Homo sapiens) (UniProt P10826); experiment: Binding affinity against retinoic acid receptor beta by [3H]ATRA displacement.
[2] = target: Retinoic acid receptor gamma (Homo sapiens) (UniProt P13631); experiment: Binding affinity against retinoic acid receptor gamma by [3H]ATRA displacement.
Retinoic acid receptor gamma (Homo sapiens), sequence (P13631 whole entry, looked up): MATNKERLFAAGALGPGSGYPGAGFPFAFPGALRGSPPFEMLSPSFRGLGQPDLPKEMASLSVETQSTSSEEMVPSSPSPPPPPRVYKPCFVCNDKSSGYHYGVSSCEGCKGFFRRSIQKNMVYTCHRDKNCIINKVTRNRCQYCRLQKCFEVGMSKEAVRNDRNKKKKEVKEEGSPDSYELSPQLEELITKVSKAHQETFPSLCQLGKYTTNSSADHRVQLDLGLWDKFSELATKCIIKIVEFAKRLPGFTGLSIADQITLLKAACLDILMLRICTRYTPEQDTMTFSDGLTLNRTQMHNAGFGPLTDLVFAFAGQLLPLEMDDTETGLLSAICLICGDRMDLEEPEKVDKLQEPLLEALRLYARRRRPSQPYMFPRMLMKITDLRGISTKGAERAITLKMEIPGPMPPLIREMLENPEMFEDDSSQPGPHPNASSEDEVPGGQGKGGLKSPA

Retinoic acid receptor beta (Homo sapiens), sequence (P10826 whole entry, looked up): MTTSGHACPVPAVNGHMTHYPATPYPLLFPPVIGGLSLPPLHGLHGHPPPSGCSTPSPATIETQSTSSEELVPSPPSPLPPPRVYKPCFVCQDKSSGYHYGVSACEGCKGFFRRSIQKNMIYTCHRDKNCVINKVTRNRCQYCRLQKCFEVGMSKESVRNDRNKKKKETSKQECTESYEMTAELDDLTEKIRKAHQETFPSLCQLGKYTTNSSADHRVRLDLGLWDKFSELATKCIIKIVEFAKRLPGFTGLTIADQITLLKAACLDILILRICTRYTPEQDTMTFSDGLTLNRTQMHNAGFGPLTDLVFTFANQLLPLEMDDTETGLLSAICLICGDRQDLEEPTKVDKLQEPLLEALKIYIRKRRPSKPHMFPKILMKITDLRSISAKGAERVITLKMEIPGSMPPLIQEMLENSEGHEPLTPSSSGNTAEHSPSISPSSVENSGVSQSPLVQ

SMILES | Ki [1] [µM] | Ki [2] [µM]
C/C(=C\C(=O)O)c1cc2c(-c3cc(C(C)(C)C)cc(C(C)(C)C)c3OCC(F)(F)F)cccc2s1 [(E)-3-{4-[3,5-Di-tert-butyl-2-(2,2,2-trifluoro-ethoxy)-phenyl]-benzo[b]thiophen-2-yl}-but-2-enoic acid] | > 10 | > 10
CCCOc1c(-c2cccc3sc(/C(C)=C/C(=O)O)cc23)cc(C(C)C)cc1C(C)C [(E)-3-[4-(3,5-Diisopropyl-2-propoxy-phenyl)-benzo[b]thiophen-2-yl]-but-2-enoic acid] | > 10 | > 10
C/C(=C\C(=O)O)c1cc2c(-c3cc(C(C)(C)C)cc(C(C)(C)C)c3OCCC(F)F)cccc2s1 [(E)-3-{4-[3,5-Di-tert-butyl-2-(3,3-difluoro-propoxy)-phenyl]-benzo[b]thiophen-2-yl}-but-2-enoic acid] | > 10 | > 10
CCCCCCCOc1c(-c2cccc3sc(/C(C)=C/C(=O)O)cc23)cc(C(C)(C)C)cc1C(C)(C)C [(E)-3-[4-(3,5-Di-tert-butyl-2-heptyloxy-phenyl)-benzo[b]thiophen-2-yl]-but-2-enoic acid] | > 10 | > 10
CCOc1c(-c2cccc3sc(/C(C)=C/C(=O)O)cc23)cc(C(C)C)cc1C(C)C [(E)-3-[4-(2-Ethoxy-3,5-diisopropyl-phenyl)-benzo[b]thiophen-2-yl]-but-2-enoic acid] | 5.94 | 10
CCCOc1c(-c2cccc3cc(/C(C)=C/C(=O)O)oc23)cc(C(C)C)cc1C(C)C [(E)-3-[7-(3,5-Diisopropyl-2-propoxy-phenyl)-benzofuran-2-yl]-but-2-enoic acid] | 9.2 | > 10
C/C(=C\C(=O)O)c1cc2cccc(-c3cc(C(C)C)cc(C(C)C)c3OCCCF)c2o1 [(E)-3-{7-[2-(3-Fluoro-propoxy)-3,5-diisopropyl-phenyl]-benzofuran-2-yl}-but-2-enoic acid] | > 10 | > 10
C/C(=C\C(=O)O)c1cc2cccc(-c3cc(C(C)C)cc(C(C)C)c3OCC(F)(F)F)c2o1 [(E)-3-{7-[3,5-Diisopropyl-2-(2,2,2-trifluoro-ethoxy)-phenyl]-benzofuran-2-yl}-but-2-enoic acid] | 2.7 | > 10
C/C(=C\C(=O)O)c1cc2c(-c3cc(C(C)(C)C)cc(C(C)(C)C)c3OCCCF)cccc2s1 [(E)-3-{4-[3,5-Di-tert-butyl-2-(3-fluoro-propoxy)-phenyl]-benzo[b]thiophen-2-yl}-but-2-enoic acid] | > 10 | > 10
C/C(=C\C(=O)O)c1cc2c(-c3cc(C(C)(C)C)cc(C(C)(C)C)c3OCC(F)F)cccc2s1 [(E)-3-{4-[3,5-Di-tert-butyl-2-(2,2-difluoro-ethoxy)-phenyl]-benzo[b]thiophen-2-yl}-but-2-enoic acid] | > 10 | > 10
C/C(=C\C(=O)O)c1cc2cccc(-c3cc(C(C)C)cc(C(C)C)c3OCC(F)F)c2o1 [(E)-3-{7-[2-(2,2-Difluoro-ethoxy)-3,5-diisopropyl-phenyl]-benzofuran-2-yl}-but-2-enoic acid] | > 10 | > 10
CCCCOc1c(-c2cccc3cc(/C(C)=C(\F)C(=O)O)oc23)cc(C(C)C)cc1C(C)C [(Z)-3-[7-(2-Butoxy-3,5-diisopropyl-phenyl)-benzofuran-2-yl]-2-fluoro-but-2-enoic acid] | > 10 | > 10
C/C(=C\C(=O)O)c1cc2c(-c3cc(C(C)(C)C)cc(C(C)(C)C)c3C)cccc2s1 [(E)-3-[4-(3,5-Di-tert-butyl-2-methyl-phenyl)-benzo[b]thiophen-2-yl]-but-2-enoic acid] | > 10 | > 10
C/C(=C/C=C/C(C)=C/C(=O)O)c1cc(C(C)(C)C)cc(C(C)(C)C)c1OCC(F)F [7-[3,5-Di-tert-butyl-2-(2,2-difluoro-ethoxy)-phenyl]-3-methyl-octa-2,4,6-trienoic acid] | > 1 | > 1
CCOc1c(-c2cccc3cc(/C(C)=C/C(=O)O)sc23)cc(C(C)C)cc1C(C)C [(E)-3-[7-(2-Ethoxy-3,5-diisopropyl-phenyl)-benzo[b]thiophen-2-yl]-but-2-enoic acid] | – | > 10
C/C(=C(/F)C(=O)O)c1cc2cccc(-c3cc(C(C)C)cc(C(C)C)c3OCC(F)F)c2o1 [(Z)-3-{7-[2-(2,2-Difluoro-ethoxy)-3,5-diisopropyl-phenyl]-benzofuran-2-yl}-2-fluoro-but-2-enoic acid] | > 10 | > 10
CCOc1c(-c2cccc3cc(/C(C)=C/C(=O)O)oc23)cc(C(C)C)cc1C(C)C [(E)-3-[7-(2-Ethoxy-3,5-diisopropyl-phenyl)-benzofuran-2-yl]-but-2-enoic acid] | > 10 | > 10

From BindingDB's records for doi:10.1016/j.bmcl.2003.12.089 (Ligand Pharmaceuticals, 2004)
